Key:
[1] = system: MIA PaCa-2; test: cells; details: Homo sapiens
Description: Cytotoxicity against human MIAPaCa2 cells assessed as reduction in cell viability

[2] = system: MCF7; test: cells; details: Homo sapiens
[3] = system: A2058; test: Cytotoxicity against human A2058 cells assessed as reduction in cell viability; assay type: cell-based
[4] = system: HepG2; test: cells; details: Homo sapiens
Description: Cytotoxicity against human HepG2 cells assessed as reduction in cell viability

[5] = molecular target: T1, Mushroom tyrosinase (Agaricus bisporus, UniProt O42713+Q00024+C7FF04+C7FF05); test: Inhibition of mushroom tyrosinase using L-DOPA as substrate
[6] = system: A549; test: cells; details: Homo sapiens
Description: Cytotoxicity against human A549 cells assessed as reduction in cell viability

[7] = molecular target: T1, Mushroom tyrosinase; test: Mixed-type of inhibition of mushroom tyrosinase using varying level of L-DOPA as substrate by Dixon plot analysis

IC50 [1]	IC50 [2]	IC50 [4]	IC50 [5]	IC50 [6]	Ki [7]	SMILES	IC50 [3]
9.46 µM	2.74 µM	3.19 µM	19.18 µM	8.3 µM		CC(/C=C/C(N)=O)=C\[C@@H](C)C(=O)c1ccc(N(C)C)cc1	0.64 µM
36.7 µM	18.4 µM	13.1 µM	161.18 µM	> 50 µM		CNC(=O)/C=C/C(C)=C/[C@@H](C)C(=O)c1ccc(N(C)C)cc1	> 50 µM
37.9 µM	18.9 µM	17.8 µM	174.33 µM	25 µM		CC(/C=C/C(=O)NO[C@@H]1O[C@H](CO)[C@@H](O)[C@H](O)[C@H]1O)=C\[C@@H](C)C(=O)c1ccc(N(C)C)cc1	37.3 µM
> 50 µM	> 50 µM	> 50 µM		> 50 µM		CC(/C=C/C(=O)O)=C\[C@@](C)(O)C(=O)c1ccc(N(C)C)cc1	> 50 µM
> 50 µM	> 50 µM	> 50 µM		> 50 µM		CC(/C=C/C(=O)O)=C\[C@H](C)C(=O)c1ccc(N(C)C)cc1	> 50 µM
> 50 µM	> 50 µM	> 50 µM		> 50 µM		CC(/C=C/C(=O)N[C@@H](CCC(N)=O)C(=O)O)=C\[C@@H](C)C(=O)c1ccc(N(C)C)cc1	> 50 µM
1.02 µM		< 0.11 µM		3.76 µM		COc1cccc2c1C(=O)c1c(O)c3c(c(O)c1C2=O)C[C@@](O)(C(=O)CO)C[C@@H]3O[C@H]1C[C@H](N)[C@H](O)[C@H](C)O1 [DOXORUBICIN]	< 0.11 µM
0.9 µM	0.3 µM	0.38 µM	2.18 µM	1.31 µM	6.1 µM	CC(/C=C/C(=O)NO)=C\[C@@H](C)C(=O)c1ccc(N(C)C)cc1 [TRICHOSTATIN]	0.43 µM

Source: ChEMBL document CHEMBL4616615, “Screening for tyrosinase inhibitors from actinomycetes; identification of trichostatin derivatives from Streptomyces sp. CA-129531 and scale up production in bioreactor” (Bioorg Med Chem Lett, 2020)
